ChEMBL document CHEMBL6114982, “Structural optimization and characterization of highly potent and selective STAT3 inhibitors for the treatment of triple negative breast cancer” (Eur J Med Chem, 2025)
Activity calls are given as the source filed them. No cut-off for these calls is given here.

How the values were obtained:
[1] = system: BT-549; test: Inhibition of colony formation in human BT-549 cells at low concentration measured after 14 days by crystal violet staining based analysis; assay type: functional, cell-based; conditions: time 14.0 day
[2] = system: MDA-MB-231; test: Inhibition of colony formation in human MDA-MB-231 cells measured after 14 days by soft agar plate cloning assay; assay type: functional, cell-based; conditions: time 14.0 day
[3] = molecular target: T1, Signal transducer and activator of transcription 3 (Homo sapiens, UniProt P40763); test: Inhibition of STAT3 nuclear translocation in human MDA-MB-231 cells assessed as decrease in p-STAT3 at Tyr705 residue at 0.05 to 0.5 uM preincubated for 48 hrs followed by IL-6 addition and measured after 2 hrs by Immunofluorescence analysis; assay type: cell-based; conditions: dose 0.05-0.5 µM, time 50.0 hrs
[4] = molecular target: T1, Signal transducer and activator of transcription 3; test: Inhibition of STAT3 phosphorylation at Tyr705 residue in human BT-549 cells measured after 8 to 48 hrs by Western blot analysis; assay type: cell-based; conditions: dose 0.1 µM, time 8-48 hrs
[5] = system: MDA-MB-231; test: Downregulation of N-cadherin expression level in human MDA-MB-231 cells by Western blot analysis; assay type: functional, cell-based
[6] = system: MDA-MB-231; test: Induction of apoptosis in human MDA-MB-231 cells assessed as late apoptotic at 0.5 uM incubated for 48 hrs by Annexin V and PI staining based flow cytometry analysis (reference value: 2.71%); assay type: functional
[7] = Toxicity in female BALB/c nude mouse assessed as effect on liver at 10 to 20 mg/kg, iv measured after 30 days by H and E staining based analysis; assay type: organism-based; conditions: in vivo, 720 h, dose 10-20 mg/kg, time 30 day
[8] = system: MDA-MB-231; test: Inhibition of colony formation in human MDA-MB-231 cells measured after 14 days by crystal violet staining based analysis; assay type: functional, cell-based; conditions: dose 0.1-0.5 µM, time 14.0 day
[9] = system: MDA-MB-231; test: Downregulation of CD44 expression in human MDA-MB-231 cells by Western blot analysis; assay type: functional, cell-based
[10] = molecular target: Epidermal growth factor receptor (Homo sapiens) (UniProt P00533); test: Inhibition of EGFR (unknown origin) at upto 10 uM
[11] = system: MDA-MB-231; test: Induction of apoptosis in human MDA-MB-231 cells incubated for 48 hrs by Annexin V and PI staining based flow cytometry analysis; assay type: functional, cell-based; conditions: dose 0.05-0.5 µM
[12] = molecular target: T1, Signal transducer and activator of transcription 3; test: Inhibition of STAT3 nuclear translocation in human BT-549 cells assessed as decrease in p-STAT3 at Tyr705 residue at 0.05 to 0.5 uM preincubated for 48 hrs followed by IL-6 addition and measured after 2 hrs by Immunofluorescence analysis; assay type: cell-based; conditions: dose 0.05-0.5 µM, time 50.0 hrs
[13] = Toxicity in female BALB/c nude mouse assessed as effect on spleen at 10 to 20 mg/kg, iv measured after 30 days by H and E staining based analysis; assay type: organism-based; conditions: in vivo, 720 h, dose 10-20 mg/kg, time 30 day
[14] = Toxicity in female BALB/c nude mouse assessed as effect on lung at 10 to 20 mg/kg, iv measured after 30 days by H and E staining based analysis; assay type: organism-based; conditions: in vivo, 720 h, dose 10-20 mg/kg, time 30 day
[15] = system: BT-549; test: Downregulation of Bcl-2 level in human BT-549 cells measured after 48 hrs by Western blot analysis; assay type: functional, cell-based; conditions: dose 0.05-0.5 µM
[16] = system: BT-549; test: Effect on STAT3 expression in human BT-549 cells at 0.1 microM measured after 8 to 48 hrs by Western blot analysis; assay type: functional, cell-based; conditions: time 8-48 hrs
[17] = molecular target: T1, Signal transducer and activator of transcription 3; test: Inhibition of STAT3 in human MDA-MB-231 cells assessed as upregulation of MCL1 level; assay type: cell-based
[18] = molecular target: T1, Signal transducer and activator of transcription 3; test: Inhibition of STAT3 phosphorylation at Tyr705 residue in human BT-549 cells at 0.1 uM by Western blot analysis; assay type: cell-based; conditions: time 8-48 hrs
[19] = molecular target: Tyrosine-protein kinase JAK1 (Homo sapiens) (UniProt P23458); test: Inhibition of JAK1 (unknown origin) at upto 10 uM
[20] = system: MDA-MB-231; test: Downregulation of MMP2 expression level in human MDA-MB-231 cells by Western blot analysis; assay type: functional, cell-based
[21] = Toxicity in female BALB/c nude mouse assessed as drug tolerance at 10 to 20 mg/kg, iv measured after 30 days; assay type: organism-based; conditions: in vivo, 720 h, dose 10-20 mg/kg, time 30 day
[22] = system: MDA-MB-231; test: Effect on ERK12 phosphorylation level in human MDA-MB-231 cells at 0.05 to 0.5 uM measured after 48 hrs by Western blot analysis; assay type: functional, cell-based; conditions: dose 0.05-0.5 µM
[23] = Half life in female BALB/c nude mouse administered as iv dose; assay type: ADME, organism-based; conditions: in vivo
[24] = molecular target: T1, Signal transducer and activator of transcription 3; test: Inhibition of STAT3 phosphorylation at Tyr705 residue at Tyr705 residue in human MDA-MB-231 cells measured after 8 to 48 hrs by Western blot analysis; assay type: cell-based; conditions: dose 0.1 µM, time 8-48 hrs
[25] = molecular target: Tyrosine-protein kinase JAK2 (Homo sapiens) (UniProt O60674); test: Inhibition of JAK2 (unknown origin) at upto 10 uM
[26] = system: MDA-MB-231; test: Effect on JAK1 phosphorylation level in human MDA-MB-231 cells at 0.05 to 0.5 uM measured after 48 hrs by Western blot analysis; assay type: functional, cell-based; conditions: dose 0.05-0.5 µM
[27] = system: MDA-MB-231; test: Antitumor activity against human MDA-MB-231 cells xenografted in female nude BALB/c mouse model assessed as tumor growth inhibition at 10 mg/kg, ip administered every other day for 30 days relative to control; assay type: functional; conditions: MDA-MB-231, 720 h, time 30 day, read-out: TGI
[28] = MRT in female BALB/c nude mouse administered as iv dose; assay type: ADME, organism-based; conditions: in vivo
[29] = system: MDA-MB-231; test: Inhibition of colony formation in human MDA-MB-231 cells at low concentration measured after 14 days by crystal violet staining based analysis; assay type: functional, cell-based; conditions: time 14.0 day
[30] = system: BT-549; test: Downregulation of STAT3 phosphorylation level in human BT-549 cells preincubated for 48 hrs followed by IL-6 addition and measured after 2 hrs by Western blot analysis; assay type: functional, cell-based; conditions: dose 0.05-0.5 µM, time 50.0 hrs
[31] = Toxicity in female BALB/c nude mouse assessed as change in body weight at 10 to 20 mg/kg, iv measured for 30 days; assay type: organism-based; conditions: in vivo, 720 h, dose 10-20 mg/kg, time 30 day
[32] = system: MDA-MB-231; test: Effect on STAT5 phosphorylation level in human MDA-MB-231 cells at 0.05 to 0.5 uM measured after 48 hrs by Western blot analysis; assay type: functional, cell-based; conditions: dose 0.05-0.5 µM
[33] = species on record: Homo sapiens; test: Inhibition of SRC phosphorylation (unknown origin) at […] residue at upto 10 uM
[34] = system: MDA-MB-231; test: Downregulation of STAT3 phosphorylation level in human MDA-MB-231 cells preincubated for 48 hrs followed by IL-6 addition and measured after 2 hrs by Western blot analysis; assay type: functional, cell-based; conditions: dose 0.05-0.5 µM, time 50.0 hrs
[35] = system: BT-549; test: Effect on ERK1/2 phosphorylation level in human BT-549 cells at 0.05 to 0.5 uM measured after 48 hrs by Western blot analysis; assay type: functional, cell-based; conditions: dose 0.05-0.5 µM
[36] = system: BT-549; test: Downregulation of Bcl-xl level in human BT-549 cells measured after 48 hrs by Western blot analysis; assay type: functional, cell-based; conditions: dose 0.05-0.5 µM
[37] = system: MDA-MB-231; test: Antiproliferative activity against human MDA-MB-231 cells assessed as inhibition of cell growth incubated for 72 hrs by SRB method; assay type: functional, cell-based; conditions: MDA-MB-231, 72 h
[38] = system: MDA-MB-231; test: Inhibition of cell invasion in human MDA-MB-231 cells assessed as decrease in number of invaded cells incubated for 24 hrs by crystal violet staining based inverted microscopic analysis; assay type: functional; conditions: dose 0.05-0.5 µM
[39] = molecular target: T1, Signal transducer and activator of transcription 3; test: Inhibition of STAT3 in human MDA-MB-231 cells assessed as upregulation of NDUFAB1 level; assay type: cell-based
[40] = system: MDA-MB-231; test: Induction of apoptosis in human MDA-MB-231 cells assessed as late apoptotic at 0.05 uM incubated for 48 hrs by Annexin V and PI staining based flow cytometry analysis (reference value: 2.71%); assay type: functional

T1 sequence (P40763 whole entry): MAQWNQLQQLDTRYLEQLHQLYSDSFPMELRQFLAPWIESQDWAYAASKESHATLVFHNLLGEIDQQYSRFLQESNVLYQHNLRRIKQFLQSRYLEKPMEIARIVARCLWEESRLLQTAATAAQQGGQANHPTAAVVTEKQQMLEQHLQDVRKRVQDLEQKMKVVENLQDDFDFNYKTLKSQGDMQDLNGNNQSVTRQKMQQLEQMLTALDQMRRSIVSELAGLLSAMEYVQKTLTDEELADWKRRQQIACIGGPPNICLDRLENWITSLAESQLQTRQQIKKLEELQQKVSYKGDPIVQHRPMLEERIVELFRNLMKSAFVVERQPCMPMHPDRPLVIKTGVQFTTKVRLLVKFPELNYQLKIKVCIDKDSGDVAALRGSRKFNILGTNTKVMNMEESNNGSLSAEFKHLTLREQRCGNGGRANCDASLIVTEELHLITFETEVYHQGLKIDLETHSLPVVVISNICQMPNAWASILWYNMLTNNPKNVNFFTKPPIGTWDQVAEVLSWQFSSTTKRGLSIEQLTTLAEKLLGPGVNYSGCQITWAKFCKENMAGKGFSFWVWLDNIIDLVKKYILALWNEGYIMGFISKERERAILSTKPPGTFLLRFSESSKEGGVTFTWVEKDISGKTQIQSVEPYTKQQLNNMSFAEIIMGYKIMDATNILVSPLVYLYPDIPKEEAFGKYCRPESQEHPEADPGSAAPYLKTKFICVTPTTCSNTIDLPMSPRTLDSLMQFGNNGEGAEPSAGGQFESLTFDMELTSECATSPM
Tyrosine-protein kinase JAK1 (Homo sapiens), sequence (P23458 whole entry): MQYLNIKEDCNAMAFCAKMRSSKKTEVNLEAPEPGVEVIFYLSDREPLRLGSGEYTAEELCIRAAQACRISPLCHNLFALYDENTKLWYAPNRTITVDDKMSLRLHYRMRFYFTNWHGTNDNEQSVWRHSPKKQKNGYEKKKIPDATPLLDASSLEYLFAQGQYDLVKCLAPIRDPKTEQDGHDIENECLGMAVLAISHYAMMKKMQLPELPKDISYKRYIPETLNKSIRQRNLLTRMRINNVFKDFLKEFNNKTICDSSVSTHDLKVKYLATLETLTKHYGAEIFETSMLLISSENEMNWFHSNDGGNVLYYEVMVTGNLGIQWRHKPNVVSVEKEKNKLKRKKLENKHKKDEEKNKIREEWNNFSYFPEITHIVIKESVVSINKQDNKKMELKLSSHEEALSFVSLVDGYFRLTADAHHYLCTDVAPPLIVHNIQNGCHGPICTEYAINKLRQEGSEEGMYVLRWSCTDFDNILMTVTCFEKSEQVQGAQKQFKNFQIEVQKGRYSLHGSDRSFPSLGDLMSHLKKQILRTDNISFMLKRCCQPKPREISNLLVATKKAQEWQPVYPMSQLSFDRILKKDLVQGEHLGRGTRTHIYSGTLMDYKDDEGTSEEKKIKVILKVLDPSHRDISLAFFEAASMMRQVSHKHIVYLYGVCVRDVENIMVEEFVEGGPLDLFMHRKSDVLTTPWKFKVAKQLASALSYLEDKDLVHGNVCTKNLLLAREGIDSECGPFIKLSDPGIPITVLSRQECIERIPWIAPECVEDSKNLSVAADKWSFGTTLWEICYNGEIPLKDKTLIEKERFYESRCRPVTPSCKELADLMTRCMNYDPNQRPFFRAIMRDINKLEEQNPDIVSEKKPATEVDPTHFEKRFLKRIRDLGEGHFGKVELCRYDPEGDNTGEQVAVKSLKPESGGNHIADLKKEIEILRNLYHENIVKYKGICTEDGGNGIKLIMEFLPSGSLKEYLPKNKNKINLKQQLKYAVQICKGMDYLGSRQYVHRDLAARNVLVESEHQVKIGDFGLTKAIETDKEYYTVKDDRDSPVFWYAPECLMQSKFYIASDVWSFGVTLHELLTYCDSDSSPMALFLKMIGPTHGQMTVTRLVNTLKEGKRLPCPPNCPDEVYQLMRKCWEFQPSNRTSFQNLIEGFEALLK
Tyrosine-protein kinase JAK2 (Homo sapiens), sequence (O60674 whole entry): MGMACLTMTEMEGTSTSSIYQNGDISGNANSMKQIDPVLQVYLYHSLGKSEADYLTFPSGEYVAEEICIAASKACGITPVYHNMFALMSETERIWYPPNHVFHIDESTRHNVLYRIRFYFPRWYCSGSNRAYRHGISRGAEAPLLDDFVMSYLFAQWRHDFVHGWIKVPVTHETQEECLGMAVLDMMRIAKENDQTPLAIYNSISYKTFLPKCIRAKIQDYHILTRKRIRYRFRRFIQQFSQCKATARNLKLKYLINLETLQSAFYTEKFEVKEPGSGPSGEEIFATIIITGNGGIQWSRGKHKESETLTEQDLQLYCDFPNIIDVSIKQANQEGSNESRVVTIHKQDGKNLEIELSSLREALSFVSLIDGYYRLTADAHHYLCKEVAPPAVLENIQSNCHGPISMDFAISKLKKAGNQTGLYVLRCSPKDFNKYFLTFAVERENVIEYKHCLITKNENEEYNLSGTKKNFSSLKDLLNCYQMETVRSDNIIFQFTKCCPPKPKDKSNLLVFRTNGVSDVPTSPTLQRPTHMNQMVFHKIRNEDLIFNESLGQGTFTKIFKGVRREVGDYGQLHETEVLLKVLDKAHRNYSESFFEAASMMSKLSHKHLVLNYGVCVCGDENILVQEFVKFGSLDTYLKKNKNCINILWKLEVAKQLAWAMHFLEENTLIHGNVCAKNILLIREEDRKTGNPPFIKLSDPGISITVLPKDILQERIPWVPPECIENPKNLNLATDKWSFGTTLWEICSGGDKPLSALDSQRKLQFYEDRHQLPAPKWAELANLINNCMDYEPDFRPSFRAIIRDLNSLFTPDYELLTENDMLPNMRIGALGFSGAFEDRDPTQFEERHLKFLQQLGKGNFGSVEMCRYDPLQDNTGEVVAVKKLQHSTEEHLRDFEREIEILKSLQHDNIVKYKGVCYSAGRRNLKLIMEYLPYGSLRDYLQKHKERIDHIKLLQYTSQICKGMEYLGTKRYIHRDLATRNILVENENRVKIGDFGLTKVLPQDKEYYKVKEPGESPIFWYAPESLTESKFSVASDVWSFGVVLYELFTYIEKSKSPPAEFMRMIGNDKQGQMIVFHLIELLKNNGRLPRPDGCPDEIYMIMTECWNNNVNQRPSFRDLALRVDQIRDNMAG
Epidermal growth factor receptor (Homo sapiens), sequence (P00533 whole entry): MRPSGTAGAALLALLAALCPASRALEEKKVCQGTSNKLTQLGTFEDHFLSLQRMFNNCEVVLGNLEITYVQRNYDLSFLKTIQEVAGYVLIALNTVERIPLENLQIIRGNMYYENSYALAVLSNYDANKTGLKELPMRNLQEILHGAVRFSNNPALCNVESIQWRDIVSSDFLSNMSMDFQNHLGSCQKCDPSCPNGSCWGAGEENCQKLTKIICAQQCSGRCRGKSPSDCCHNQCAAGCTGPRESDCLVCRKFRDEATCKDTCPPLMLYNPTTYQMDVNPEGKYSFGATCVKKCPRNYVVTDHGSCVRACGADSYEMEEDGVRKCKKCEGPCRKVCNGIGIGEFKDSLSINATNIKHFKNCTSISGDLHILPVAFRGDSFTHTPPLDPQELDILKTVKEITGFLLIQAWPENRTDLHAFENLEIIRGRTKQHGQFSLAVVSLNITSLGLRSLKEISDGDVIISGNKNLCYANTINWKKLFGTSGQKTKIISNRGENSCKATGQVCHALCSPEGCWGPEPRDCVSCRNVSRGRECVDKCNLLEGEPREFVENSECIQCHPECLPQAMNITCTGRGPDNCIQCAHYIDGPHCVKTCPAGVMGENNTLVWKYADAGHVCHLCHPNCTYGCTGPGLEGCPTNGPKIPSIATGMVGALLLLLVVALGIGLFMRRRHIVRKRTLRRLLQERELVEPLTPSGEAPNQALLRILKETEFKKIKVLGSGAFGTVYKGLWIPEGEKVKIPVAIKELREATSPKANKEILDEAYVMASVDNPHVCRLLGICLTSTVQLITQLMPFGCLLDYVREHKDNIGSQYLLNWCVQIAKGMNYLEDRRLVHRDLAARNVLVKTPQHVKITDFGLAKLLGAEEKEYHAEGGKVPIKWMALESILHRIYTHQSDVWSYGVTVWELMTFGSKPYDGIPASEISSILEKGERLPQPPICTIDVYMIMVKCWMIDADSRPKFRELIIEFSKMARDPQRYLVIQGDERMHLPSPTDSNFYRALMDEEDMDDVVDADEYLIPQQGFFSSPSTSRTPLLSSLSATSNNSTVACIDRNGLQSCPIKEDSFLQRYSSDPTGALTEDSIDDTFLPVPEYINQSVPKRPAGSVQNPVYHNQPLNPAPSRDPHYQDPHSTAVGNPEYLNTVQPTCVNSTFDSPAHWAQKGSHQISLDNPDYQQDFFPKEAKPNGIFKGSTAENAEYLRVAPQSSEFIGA

For `COc1cccc(C(=O)Nc2sc3c(c2C#N)CCN(C(=O)Nc2ccccc2OC)C3)c1`, which inhibition [1] is on record?
Its inhibition is “Active; Compound Showed Robust Inhibition Compared To Positive Control”.

What about the inhibition [2] of the same compound?
The inhibition was “Active”.

And the inhibition [3]?
The inhibition was “Active”.

And the inhibition [4]?
Its inhibition is “Dose-dependent-effect”.

And the Activity [5]?
The Activity was “Active”.

What about the Activity [6] of the same compound?
The Activity was 19.18%.

What about the Activity [7] of the same compound?
The Activity was “Non-toxic”.

What about the inhibition [8] of the same compound?
The inhibition was “Dose-dependent-effect”.

What about the Activity [9] of the same compound?
The Activity was “Active”.

What about the inhibition [10] of the same compound?
The inhibition was “Active; Compound Showed Little Inhibitory Effect”.

What about the Activity [11] of the same compound?
Its Activity is “Dose-dependent-effect”.

And the inhibition [12]?
Its inhibition is “Active”.

And the Activity [13]?
The Activity was “Non-toxic”.

What about the Activity [14] of the same compound?
Its Activity is “Non-toxic”.

And the Activity [15]?
Its Activity is “Dose-dependent-effect”.

What about the Activity [16] of the same compound?
Its Activity is “Active; Compound Showed Little Impact On Stat3 Expression”.

What about the inhibition [17] of the same compound?
The inhibition was “Active”.

What about the inhibition [18] of the same compound?
The inhibition was “Time-dependent-effect”.

What about the inhibition [19] of the same compound?
Its inhibition is “Active; Compound Showed Little Inhibitory Effect”.

What about the Activity [20] of the same compound?
The Activity was “Active”.

What about the Activity [21] of the same compound?
Its Activity is “Non-toxic”.

What about the Activity [22] of the same compound?
The Activity was “inactive”.

What about the half-life [23] of the same compound?
The half-life was 23 h.

What about the inhibition [24] of the same compound?
Its inhibition is “Dose-dependent-effect”.

What about the inhibition [25] of the same compound?
The inhibition was “Active; Compound Showed Little Inhibitory Effect”.

And the Activity [26]?
Its Activity is “inactive”.

And the inhibition in vivo at 10 mg/kg [27]?
The inhibition in vivo at 10 mg/kg was 51.5%.

What about the MRT [28] of the same compound?
The MRT was 10 h.

And the inhibition [29]?
The inhibition was “Active; Compound Showed Robust Inhibition Compared To Positive Control”.

And the Activity [30]?
The Activity was “Dose-dependent-effect”.

What about the Activity [31] of the same compound?
Its Activity is “Toxic”.

What about the Activity [32] of the same compound?
Its Activity is “inactive”.

And the inhibition [33]?
Its inhibition is “Active; Compound Showed Little Inhibitory Effect”.

And the Activity [34]?
Its Activity is “Dose-dependent-effect”.

What about the Activity [35] of the same compound?
Its Activity is “inactive”.

What about the Activity [36] of the same compound?
Its Activity is “Dose-dependent-effect”.

What about the IC50 [37] of the same compound?
Its IC50 is 30 nM.

And the inhibition [38]?
Its inhibition is “Dose-dependent-effect”.

What about the inhibition [39] of the same compound?
Its inhibition is “Active”.

What about the Activity [40] of the same compound?
Its Activity is 12.78%.
